Source: publication PMC11956017, “Design of Benzyl-triazolopyrimidine-Based NADPH Oxidase Inhibitors Leads to the Discovery of a Potent Dual Covalent NOX2/MAOB Inhibitor” (Journal of Medicinal Chemistry, 2025)
Several values for one entry are separate records, joined by “and”; a condition that tells them apart may be missing. Identical values can stand only once. Entries after “also recorded” stand apart in the source; their conditions may differ.

What was measured:
[1] = test system: BV2 cells; assay: qRT-PCR of iNOS, IL-1β and IL-6 transcripts in BV2 cells; type: cell-based, murine
Method: BV2 murine microglial cells were cultured in DMEM supplemented with 10% heat-inactivated FBS, 100 IU/mL penicillin G, […] streptomycin, and […] amphotericin B and grown at 37 °C in 5% CO2 and a humidified atmosphere. […]
BV2 cells were lysed in a Trizol reagent for isolation of RNA. A reverse transcription reaction was performed in a thermocycler (MJMini personal thermal cycler; Biorad) using an IScript Reverse Transcription Supermix (Biorad) according to the manufacturer’s protocol, under the following conditions: incubation at 25 ° C for 5 min, reverse transcription at 42 ° C for 30 min, and inactivation at 85 ° C for 5 min. Real-time PCR (rtPCR) was carried out in an I-Cycler IQ Multicolor rtPCR detection system (Biorad) using a SsoFast EvaGreen Supermix (Biorad) according to the manufacturer’s instructions. The PCR protocol consisted of 40 cycles of denaturation at 95 ° C for 30 s and annealing/extension at 60 ° C for 30 s. For quantification analysis, the comparative threshold cycle (Ct) method was used. The Ct values from each gene were normalized to the Ct value of GAPDH in the same RNA samples. Relative quantification was performed using the 2^–ΔΔCt method (Schmittgen and Livak, 2008) and expressed as a fold change in arbitrary values. Primers used are as follows: • iNOS fw: […]; rev: […]. • IL-1β fw: […]; rev: […]. • IL-6 fw: […]; rev: […].

[2] = molecular target: T1, human MAOB (Homo sapiens, UniProt P27338); assay: Spectrophotometric monitoring of MAOB flavin covalent modification; type: binding
T1 construct: made in house; host or cells: Pichia pastoris
T1 sequence (P27338 1-520): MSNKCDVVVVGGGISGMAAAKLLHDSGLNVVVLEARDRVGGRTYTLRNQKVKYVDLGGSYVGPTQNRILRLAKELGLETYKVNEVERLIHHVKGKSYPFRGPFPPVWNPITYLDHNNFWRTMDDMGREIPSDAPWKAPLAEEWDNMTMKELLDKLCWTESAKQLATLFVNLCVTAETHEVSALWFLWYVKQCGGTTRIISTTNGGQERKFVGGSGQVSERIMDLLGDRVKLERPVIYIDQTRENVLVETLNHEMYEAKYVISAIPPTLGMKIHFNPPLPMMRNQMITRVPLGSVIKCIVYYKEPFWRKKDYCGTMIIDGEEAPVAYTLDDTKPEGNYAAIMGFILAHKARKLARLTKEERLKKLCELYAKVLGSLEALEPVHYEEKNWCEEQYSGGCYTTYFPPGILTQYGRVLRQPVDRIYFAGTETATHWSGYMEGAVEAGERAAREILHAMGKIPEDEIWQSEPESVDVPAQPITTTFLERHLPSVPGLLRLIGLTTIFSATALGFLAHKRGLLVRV
Method: IC50 values on human MAOA and human MAOB were determined using the Amplex Red/horseradish peroxidase coupled assay. […] Measurements were performed using a ClarioStar plate reader (excitation 572 nm and emission 583 nm) (BMG Labtech). IC50 values were obtained by fitting the percentage of inhibition versus log(inhibitor concentration) using GraphPad software 7.0. The covalent modification of the flavin upon the reaction with the propargylamine-containing inhibitors was monitored spectrophotometrically using a diode array UV/visible spectrophotometer (Agilent Technologies). […] The cofactor covalent modification was monitored over time following the shift of the enzyme-bound flavin (peaks at 370 and 456 nm) to 410 nm (ε410 = 23,500 M^–1 cm^–1) (Figure S10).

[3] = molecular target: T2, human myoglobin (Homo sapiens, UniProt P02144); assay: Native mass spectrometry of myoglobin reactivity; type: binding; details: myoglobin 1 µM, compound 5 µM and 20 µM, pH 7.5, 30 minutes
T2 construct: purchased Sigma Aldrich M6036; host or cells: human cardiac
T2 sequence (P02144 1-154): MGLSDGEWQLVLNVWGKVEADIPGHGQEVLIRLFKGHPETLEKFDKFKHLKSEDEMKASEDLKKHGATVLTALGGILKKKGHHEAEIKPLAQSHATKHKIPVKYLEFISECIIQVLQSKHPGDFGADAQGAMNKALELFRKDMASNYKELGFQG
Method: Protein samples were buffer-exchanged into 200 mM ammonium acetate (pH 7.5) through dialysis prior to native MS analyses. These samples were directly introduced into the mass spectrometer using gold-coated capillary needles prepared in-house.[63] Data were collected on a Q Exactive UHMR hybrid quadrupole-Orbitrap mass spectrometer (Thermo Fisher) with positive polarity. The instrument parameters used for MS spectra collection were the following: capillary voltage, 1.2 kV; scan range from 1000 to 20,000 m/z; HCD collision energy, 0–100 V; source fragmentation, 0 V; in-source trapping, 0 V. The ion transfer optics was set as follows: injection flatapole, 5 V; interflatapole lens, 4 V; bent flatapole, 2 V; transfer multipole, 0 V. The resolution of the instrument was 17,500 at m/z = 200 (transient time of 64 ms), the nitrogen pressure in the HCD cell was maintained at approximately 4 × 10^–10 mbar, and the source temperature was kept at 100 °C. The noise level was set at 3 rather than the default value of 4.64. Calibration of the instruments was performed using 10 mg/mL solution of cesium iodide in water. Data were analyzed using Xcalibur 3.0 (Thermo Scientific), NaViA,[64] and UniDec software packages.[65]

[4] = test system: csNOX5 dehydrogenase; assay: Intact protein mass spectrometry of csNOX5 dehydrogenase; type: binding, Cylindrospermum stagnale
Method: Approximately 1 mg mL^-1 protein was incubated with 300 μM FAD and 1 mM 9a at 4 °C for 1 h. A negative control reaction was performed by adding an equal volume of DMSO. Protein was denatured by adding 1% (v/v) formic acid. Chromatographic separation and mass spectrometry analysis were carried out as previously reported.[10] Analyses were carried out by ESI-qTOF-HRMS on an […] qTOF system (Sciex) embedding a Twin Sprayer ESI probe and coupled with an ExcionLC system (Sciex) controlled by SciexOS software v. 3.0.0. The injection volume was 10 μL (10 μg), and chromatographic separation was carried out with a bioZen WidePore C4 column (a 100 mm length, a 2.1 mm diameter, and a 2.6 μm particle size; Phenomenex).

[5] = 10 μM, LPS/IFN-γ, 48 h compound treatment

Q: How did the “decrease in IL-1β mRNA level” value [1, 5] turn out when `C#CCN(C)Cc1ccc(Cn2nnc3c(Sc4nc5ccccc5o4)ncnc32)cc1` [Compound 9a, N-(4-((7-(Benzo[d]oxazol-2-ylthio)-3H-[1,2,3]triazolo[4,5-d]pyrimidin-3-yl)methyl)benzyl)-N-methylprop-2-yn-1-amine] was run?
A: 4 fold

Q: What about the “decrease in IL-6 mRNA level” value [1, 5] of the same molecule?
A: 4 fold

Q: What about the “decrease in iNOS mRNA level” value [1, 5] of the same molecule?
A: over 10 fold

Q: And the “effects on iNOS, IL-1β and IL-6 mRNA without inhibitor pretreatment” value ([1]; cells pre-stimulated with LPS/IFN-γ for 24h, then 10 µM compound for 24 h)?
A: negligible

Q: What about the “covalent flavin adduct with MAOB (absorbance shift to 410 nm)” value ([2]; 5-fold molar excess over 20 μM protein) of the same molecule?
A: formation of a covalent N-methyl-N-propargylamine-flavin adduct

Q: What about the “MAOB cofactor modified at the final time point” value ([2]; after 30 min of incubation) of the same molecule?
A: 18.4 µM

Q: What about the “calculated inhibited fraction of MAOB” value ([2]; after 30 min of incubation) of the same molecule?
A: 91.8%

Q: And the “adduct formation with myoglobin” value [3]?
A: no adduct formation was detected; also recorded: did not bind

Q: What about the “increase in molecular weight of csNOX5 dehydrogenase after reaction” value ([4]; 1 mM inhibitor, 4 °C, 1 h, vs DMSO-treated protein) of the same molecule?
A: 290 Da and 290.3 Da

Q: And the “covalent binding to csNOX5 dehydrogenase active-site cysteine” value ([4]; intact protein ESI-qTOF-HRMS)?
A: covalent binding
